From article PMC13253105, “Chemical inhibition of a CBASS anti-bacteriophage defense” (iScience, 2026) come the findings set out here.

One assay addresses PsCap5 (Pseudomonas syringae pv. actinidiae, UniProt A0A2P0QGK5). In words: biochemical. The settings on record: for inhibition of PsCap5 in rescreening of the compound library: normalized DNA band intensity, threshold 0.25.
The target of a further assay is LlCap5 (Lactococcus cremoris, UniProt A0A1E7G0A2). Description: biochemical. Also on record: species or system Lactococcus lactis.
Chain of LlCap5 (A0A1E7G0A2 1-385): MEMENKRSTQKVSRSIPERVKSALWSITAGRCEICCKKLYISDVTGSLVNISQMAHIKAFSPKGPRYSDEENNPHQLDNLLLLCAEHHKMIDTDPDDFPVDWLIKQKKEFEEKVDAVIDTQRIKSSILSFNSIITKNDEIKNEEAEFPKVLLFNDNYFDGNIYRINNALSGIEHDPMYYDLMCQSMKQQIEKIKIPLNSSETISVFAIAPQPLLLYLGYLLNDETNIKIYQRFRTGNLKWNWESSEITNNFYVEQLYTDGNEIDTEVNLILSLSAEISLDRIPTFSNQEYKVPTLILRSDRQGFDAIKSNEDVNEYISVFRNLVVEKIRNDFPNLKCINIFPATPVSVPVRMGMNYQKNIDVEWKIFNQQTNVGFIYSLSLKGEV
Assay [1] has as its system PsCap5 in E. coli BL21 (DE3) cells. The class given is cell-based.
Procedure: The same E. coli BL21 (DE3) cells carrying the PsCap5 expression plasmid from above were grown in LB medium with 50 μg/mL kanamycin at 37°C with 220 rpm shaking to an OD600 of ∼0.6 (1 cm pathlength). […] The bacterial cultures were then serially diluted from 10-1 to 10−6, and 5 μL of each was spotted onto LB agar petri dishes supplemented with kanamycin. After overnight incubation, the plates were photographed and colonies formed by viable cells were counted.
The next assay deals with DpnI (Streptococcus pneumoniae serotype 4, UniProt P0A459). The class given is biochemical. As to conditions: 1 μL 100 μM inhibitor 20 in 10 μL buffer.
Chain of DpnI (P0A459 whole entry, looked up): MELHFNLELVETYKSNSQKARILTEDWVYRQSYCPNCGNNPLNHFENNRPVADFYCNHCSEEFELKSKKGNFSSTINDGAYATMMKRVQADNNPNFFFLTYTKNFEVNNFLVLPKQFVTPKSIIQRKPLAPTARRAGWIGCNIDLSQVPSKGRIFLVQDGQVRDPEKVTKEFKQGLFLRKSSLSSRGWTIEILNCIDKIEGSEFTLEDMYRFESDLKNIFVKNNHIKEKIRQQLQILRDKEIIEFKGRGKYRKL
The target of another assay is Cas9 (Streptococcus pyogenes serotype M1, UniProt Q99ZW2). The class given is biochemical. The settings on record: inhibitor 20 (100 µM).
Chain of Cas9 (Q99ZW2 whole entry, looked up): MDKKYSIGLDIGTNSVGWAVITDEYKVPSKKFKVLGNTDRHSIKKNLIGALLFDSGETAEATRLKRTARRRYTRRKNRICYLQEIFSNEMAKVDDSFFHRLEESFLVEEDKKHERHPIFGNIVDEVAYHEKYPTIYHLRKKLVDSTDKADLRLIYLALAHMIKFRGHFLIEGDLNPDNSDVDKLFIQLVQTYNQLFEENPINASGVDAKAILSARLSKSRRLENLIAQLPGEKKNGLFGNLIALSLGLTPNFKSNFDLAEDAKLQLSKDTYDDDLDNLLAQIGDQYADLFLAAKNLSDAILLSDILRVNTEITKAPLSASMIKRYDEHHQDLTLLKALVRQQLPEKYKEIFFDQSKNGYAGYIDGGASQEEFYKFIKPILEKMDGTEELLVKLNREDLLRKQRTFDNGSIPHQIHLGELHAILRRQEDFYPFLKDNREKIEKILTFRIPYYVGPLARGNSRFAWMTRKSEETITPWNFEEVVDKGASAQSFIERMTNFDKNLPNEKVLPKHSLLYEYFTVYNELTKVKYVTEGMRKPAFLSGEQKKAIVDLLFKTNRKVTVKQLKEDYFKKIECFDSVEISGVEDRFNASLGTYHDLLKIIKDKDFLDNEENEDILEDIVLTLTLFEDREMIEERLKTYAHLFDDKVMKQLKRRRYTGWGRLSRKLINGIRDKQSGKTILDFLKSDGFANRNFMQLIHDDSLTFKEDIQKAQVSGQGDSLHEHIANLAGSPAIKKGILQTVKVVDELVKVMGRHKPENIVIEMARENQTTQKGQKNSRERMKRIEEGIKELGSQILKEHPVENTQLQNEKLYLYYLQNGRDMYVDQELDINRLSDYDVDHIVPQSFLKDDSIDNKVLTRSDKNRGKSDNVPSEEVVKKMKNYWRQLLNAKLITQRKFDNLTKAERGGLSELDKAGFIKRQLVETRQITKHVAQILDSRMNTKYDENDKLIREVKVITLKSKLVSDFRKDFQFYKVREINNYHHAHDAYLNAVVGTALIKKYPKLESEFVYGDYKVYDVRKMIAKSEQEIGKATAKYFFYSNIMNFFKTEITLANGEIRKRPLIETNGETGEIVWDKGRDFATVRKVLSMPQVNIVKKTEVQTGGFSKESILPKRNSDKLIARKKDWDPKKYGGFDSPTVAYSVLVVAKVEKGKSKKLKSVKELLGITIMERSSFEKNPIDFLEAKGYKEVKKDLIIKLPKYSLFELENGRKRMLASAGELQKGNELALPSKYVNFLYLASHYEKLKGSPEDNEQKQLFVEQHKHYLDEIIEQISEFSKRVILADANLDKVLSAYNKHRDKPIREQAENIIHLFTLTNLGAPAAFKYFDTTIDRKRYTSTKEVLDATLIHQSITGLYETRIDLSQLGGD

Where two headings read alike, the source gives them in different places. Where a SMILES comes first, the peptide text is derived from it. The star is where a group is joined. Cbz = O=C(OCc1ccccc1)*; Bn = c1ccc(C*)cc1

For orientation: IC50 means the concentration that gives 50% inhibition.

Chain of PsCap5 (A0A2P0QGK5 10-397 limits assumed): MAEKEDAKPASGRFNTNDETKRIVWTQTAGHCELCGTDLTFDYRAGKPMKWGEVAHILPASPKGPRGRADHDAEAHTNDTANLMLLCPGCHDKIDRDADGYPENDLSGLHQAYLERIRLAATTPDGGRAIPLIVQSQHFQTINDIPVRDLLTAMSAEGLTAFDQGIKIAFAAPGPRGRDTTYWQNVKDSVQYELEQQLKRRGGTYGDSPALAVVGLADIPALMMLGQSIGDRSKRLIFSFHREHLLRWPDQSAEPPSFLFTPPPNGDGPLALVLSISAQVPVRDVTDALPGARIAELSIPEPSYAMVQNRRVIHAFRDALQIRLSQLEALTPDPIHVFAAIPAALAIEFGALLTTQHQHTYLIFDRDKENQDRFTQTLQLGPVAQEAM

Take `Cn1c(=O)[nH]c(=O)c2c1nc(SCCSc1nc3c(c(=O)[nH]c(=O)n3C)n1CCc1ccccc1)n2CCc1ccccc1` [Compound 36]: the values for the half-maximal inhibitory concentration (IC50) against PsCap5 and on LlCap5 were 100 ± 20 µM and 140 ± 20 µM, respectively.

Turning to `O=C(CCN1C(=O)c2ccccc2C1=O)NCCCCCCNC(=O)CCN1C(=O)c2ccccc2C1=O` [Compound 19], the “inhibition of PsCap5 in rescreening of the compound library” value (shortened to “inhibition of PsCap5”) against PsCap5 is “did not noticeably inhibit PsCap5”. The compound further came in with a concentration for half-maximal inhibition (IC50) at LlCap5 greater than 100 µM.

Turning to `NC(=O)[C@H](Cc1ccc(O)cc1)NC(=O)[C@H](CCCCNC(=O)OCc1ccccc1)NC(=O)OCc1ccccc1` [Compound 37], the 50% inhibitory concentration (IC50) was 150 ± 40 µM against PsCap5 and 260 ± 70 µM against LlCap5.

Turning to `COC(=O)C(NC(=O)C(Cc1ccc(OCc2ccccc2)cc1)NC(=O)C(Cc1ccccc1)NC(=O)CNC(=O)OCc1ccccc1)C(C)O` (stereo not shown) [Compound 22] (Cbz-GFY(Bn)T-OMe; configuration not given here), on PsCap5, the “inhibition of PsCap5” value is “did not noticeably inhibit PsCap5”. Moreover, the IC50 on LlCap5 is 58 ± 16 µM.

For the compound `NS(=O)(=O)c1ccc(CCNC(=O)CCCn2c(SCc3cc(=O)n4cc(Br)ccc4n3)nc3ccsc3c2=O)cc1` [Compound 2], the “inhibition of PsCap5” value at PsCap5 was “did not noticeably inhibit PsCap5”. For the same compound, the IC50 against LlCap5 amounted to 230 ± 10 µM.

In the case of `NS(=O)(=O)c1ccc(CCNC(=O)CSc2nc3ccccc3c(=O)n2Cn2c(SCC(=O)NCCc3ccc(S(N)(=O)=O)cc3)nc3ccccc3c2=O)cc1` [Compound 4], the IC50 on PsCap5 (read-out: IC50 against PsCap5, 50 nM PsCap5, 10 nM 3′,2′-cGAMP, 37°C 15 min, ±S.E.M. of biological triplicates) came to 11 ± 1 µM. Also, on LlCap5 (normalized DNA band intensity, threshold for activity 0.4), the “inhibition of LlCap5 in biochemical screening” value is “inactive against LlCap5”. In assay [1], the “rescue of E. coli from cGAMP-Cap5-induced toxicity” value is on record as “failed to rescue”.

As for 3′,2′-cGAMP [reference compound], the “bacterial growth of E. coli carrying PsCap5 plasmid after extrinsic addition of activating ligand” value in assay [1] is “severe restriction of bacterial growth”.

In the case of `Cc1ccc(CNC(=O)c2ccc(Cn3c(=O)c4ccccc4n(CC(=O)NCc4ccco4)c3=O)cc2)cc1` [Compound 20], the “inhibition of DpnI” value against DpnI was “failed to inhibit”. Also, the “inhibition of Cas9” value against Cas9 is given as “failed to inhibit Cas9”. For the same compound, the figures for the IC50 against PsCap5 and against LlCap5 were 24 ± 8 µM and 120 ± 60 µM, respectively. Further, the “recovery of viable cells (bacterial population)” value in assay [1] (0.33 mM compound 20, 0.2 mM 3′,2′-cGAMP, 37°C 3 h) was roughly 100 fold.
